From patent publication US20250268801A1, “DRY CREAMS AND TOPICAL DELIVERY SYSTEMS” (UEA Enterprises Limited, priority 2021, published 2025)
In brackets after ≈: the same amount, converted by molar mass.

Legend:
[1] = Drug solubility in loading solvent; type: physicochemical; conditions: sunflower oil, oil or lipid
Description: The maximum amount of metoprolol which can dissolve in the volume of ethanol in a 10% solution was precisely weighed out and dissolved in the ethanol—DCM in the HPMCAS-PVP polymer solution before it was electrospun. When coumarin (hydrophobic fluorescent dye) was added, the voltage was increased to 19.1 kv. […] Ketoconazole was dissolved in sunflower oil.

[2] = cited from earlier work

Structure (SMILES) | solubility [1] [µg/mL] | solubility in ethanol [2] [µg/mL]
CC(=O)N1CCN(c2ccc(OCC3COC(Cn4ccnc4)(c4ccc(Cl)cc4Cl)O3)cc2)CC1 (centres unmarked) [Ketoconazole] | ~5800 (≈ 10.9 mM) | 
COCCc1ccc(OCC(O)CNC(C)C)cc1 (centres unmarked) [Metoprolol] |  | 31000 (≈ 116 mM)
